Target: T1, human DGAT2 (Homo sapiens, UniProt Q96PD7)
T1 construct: FLAG (DYKDDDDK); made in house; host or cells: Sf-21 insect cells (BacPAK baculovirus system); membrane fraction used
T1 sequence (Q96PD7 1-388): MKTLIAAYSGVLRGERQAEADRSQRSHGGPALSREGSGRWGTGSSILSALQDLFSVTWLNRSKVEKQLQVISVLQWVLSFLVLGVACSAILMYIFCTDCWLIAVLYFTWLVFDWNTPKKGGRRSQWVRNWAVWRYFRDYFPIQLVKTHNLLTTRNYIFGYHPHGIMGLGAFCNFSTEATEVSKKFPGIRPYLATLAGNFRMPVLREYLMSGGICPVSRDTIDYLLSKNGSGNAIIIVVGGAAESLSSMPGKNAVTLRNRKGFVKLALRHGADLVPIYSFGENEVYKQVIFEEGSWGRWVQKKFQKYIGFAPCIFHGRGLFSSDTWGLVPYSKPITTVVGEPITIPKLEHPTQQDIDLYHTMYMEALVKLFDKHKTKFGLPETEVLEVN
Test: DGAT2 enzyme activity inhibition, Phospholipid FlashPlate SPA
Format: biochemical
Settings: recombinant human DGAT2 membrane protein from Sf-21 cells; inhibition of [14C]-TG production; 37° C.
Description: In order to prepare the pBacPAK9-DGAT2, which is DGAT2 expression vector, the human DGAT2 gene amplified by polymerase chain reaction (PCR) was cloned into the EcoR1 and Xho1 sites of the pBacPAK9 (clonctech) vector. The nucleotide sequence of the primers used in PCR was the forward primer 5′ […] (SEQ. ID. NO: 2). The composition of the reaction solution was to contain 50 ng of cDNA clone (OriGene), 200 μM of dATP, dCTP, dTTP, dGTP, 200 nM of each primer, 1 unit of Tag DNA Polymerase (Toyobo), 1×PCR buffer, and the final volume was adjusted to 20 μl. The reaction conditions were denatured at 95° C. for 5 minutes, followed by 30 times of 94° C. for 20 seconds, 60° C. for 20 seconds, and 72° C. for 90 seconds, followed by further reaction at 72° C. for 7 minutes.
Recombinant human DGAT2 protein was expressed in Sf-21 cells, which are insect cells, by using the BacPack baculovirus expression system (Clontech). The brief manufacturing process is as follows. First, the pBacPAK9-DGAT2 expression vector was transfected with BacPAK6 virus DNA (Bsu36I digest) into sf21 cells using Bacfectin to prepare a recombinant DGAT2 expressing baculovirus. The thus prepared baculovirus was infected with Sf-21 cells at 10 MOI (multiplicity of infection), and after 72 hours, infected insect cells were collected and membrane proteins were isolated. For membrane protein separation, the cell pellet was dissolved in a sucrose solution containing 250 mM sucrose, 10 mM Tris (pH 7.4), and 1 mM ethylenediamine-tetraacetic acid (EDTA), and then homogenized by using a dounce homogenizer, and the supernatant was taken by centrifuging at 600×g for 15 minutes, and centrifuged at 100,000×g for 1 hour to discard the supernatant, and the remaining pellet was resuspended in 20 mM HEPES buffer (pH 7.4). The prepared DGAT2 overexpressing membrane protein was dispensed in 100 μl and stored at −80° C. until use. Protein concentration was quantified by using the BCA Protein Assay Kit (Thermo Scientific).
In vitro DGAT2 analysis was performed using a Phospholipid Flash Plate (PerkinElmer) based on the principle of SPA (Scintilation Proximity Assay). First, DGAT2 inhibition compounds serially diluted 5 times from 3 nM to 10 μM (final concentration, 1% DMSO) were mixed in a buffer solution containing 2 μg DGAT2-membrane protein and 20 mM HEPES, 20 mM MgCl2, 1 mg/mL BSA, 50 μM 1,2 sn-oleoyl glycerol (Sigma), put in a 96-well flash plate (FlashPlate) and reacted at 37° C. for 20 minutes, and then 1 μM [14C] ole oil CoA (PerkinElmer, NEC651050UC) was added to be a final volume of 100 μL and further reacted at 37° C. for 15 minutes. After the enzymatic reaction was completed, 100 μL of isopropanol was added, the plate was sealed with a film, and the plate was shaken slowly in a plate shaker. The next day, the amplified scintillation signal (cpm) in Topcounter (Packard) was measured to measure the degree of production of [14C]-labeled triacyl glycerol (TG) as a reaction product. The measured value when the compound was not treated was used as a positive control, and the measured value of the compound treated group was calculated as a relative % to measure the inhibition effect of the compound on TG production.

SMILES | IC50 [µM]
CCOc1ccccc1O[C@@H]1CCCN(c2cncc(Nc3ncc(C(=O)O)s3)n2)C1 [Example 1, (R)-2-((6-(3-(2-ethoxyphenoxy)piperidin-1-yl)pyrazin-2-yl)amino)thiazole-5-carboxylic Acid] | 6.2
CCOc1ccccc1O[C@@H]1CCCN(c2cncc(Nc3nc(C)c(C)s3)n2)C1 [Example 2, (R)—N-(6-(3-(2-ethoxyphenoxy)piperidin-1-yl)pyrazin-2-yl)-4,5-dimethylthiazol-2-amine] | 6.5
CCOc1ccccc1O[C@@H]1CCCN(c2cncc(Nc3nccs3)n2)C1 [Example 3, (R)—N-(6-(3-(2-ethoxyphenoxy)piperidin-1-yl)pyrazin-2-yl)thiazol-2-amine] | 6.3
CCOc1ccccc1O[C@@H]1CCCN(c2cncc(Nc3nc(-c4ccccc4)cs3)n2)C1 [Example 4, (R)—N-(6-(3-(2-ethoxyphenoxy)piperidin-1-yl)pyrazin-2-yl)-4-phenylthiazol-2-amine] | > 10
CCOc1ccccc1O[C@@H]1CCCN(c2cncc(Nc3nc4ccccc4s3)n2)C1 [Example 5, (R)—N-(6-(3-(2-ethoxyphenoxy)piperidin-1-yl)pyrazin-2-yl)benzo[d]thiazol-2-amine] | ≥ 13
CCOc1ccccc1O[C@@H]1CCCN(c2cncc(Nc3nc4ccc(S(C)(=O)=O)cc4s3)n2)C1 [Example 7, (R)—N-(6-(3-(2-ethoxyphenoxy)piperidin-1-yl)pyrazin-2-yl)-6-(methanesulfonyl)benzo[d]thiazol-2-amine] | 8.8
CCOc1ccccc1O[C@@H]1CCCN(c2cncc(Nc3cc(C(C)(C)COCCOC)no3)n2)C1 [Example 8, (R)—N-(6-(3-(2-ethoxyphenoxy)piperidin-1-yl)pyrazin-2-yl)-3-(1-(2-methoxyethoxy)-2-methylpropan-2-yl)isooxazol-5-amine] | 0.55
CCOc1ccccc1O[C@@H]1CCCN(c2cncc(Nc3nc(-c4ccccc4)co3)n2)C1 [Example 9, (R)—N-(6-(3-(2-ethoxyphenoxy)piperidin-1-yl)pyrazin-2-yl)-4-phenyloxazol-2-amine] | 2.3
CCOc1ccccc1O[C@@H]1CCCN(c2cncc(Nc3nc4ccccc4o3)n2)C1 [Example 10, (R)—N-(6-(3-(2-ethoxyphenoxy)piperidin-1-yl)pyrazin-2-yl)benzo[d]oxazol-2-amine] | 0.25
CCOc1ccccc1O[C@@H]1CCCN(c2cncc(Nc3nc4cc(Cl)ccc4o3)n2)C1 [Example 11, (R)-5-chloro-N-(6-(3-(2-ethoxyphenoxy)piperidin-1-yl)pyrazin-2-yl)benzo[d]oxazol-2-amine] | 0.059
CCOc1ccccc1O[C@@H]1CCCN(c2cncc(Nc3nc4cc(CC(=O)O)ccc4o3)n2)C1 [Example 12, (R)-2-(2-((6-(3-(2-ethoxyphenoxy)piperidin-1-yl)pyrazin-2-yl)amino)benzo[d]oxazol-5-yl)acetic Acid] | 3.4
CCOc1ccccc1O[C@@H]1CCCN(c2cncc(Nc3nc4cc(C(C)(C)C(=O)O)ccc4o3)n2)C1 [Example 13, (R)-2-(2-((6-(3-(2-ethoxyphenoxy)piperidin-1-yl)pyrazin-2-yl)amino)benzo[d]oxazol-5-yl)-2-methylpropanoic Acid] | 0.96
CCOc1ccccc1O[C@@H]1CCCN(c2cncc(Nc3nc4cc(CC(C)(C)C(=O)O)ccc4o3)n2)C1 [Example 14, (R)-3-(2-((6-(3-(2-ethoxyphenoxy)piperidin-1-yl)pyrazin-2-yl)amino)benzo[d]oxazol-5-yl)-2,2-dimethylpropanoic Acid] | 3.1
CCOc1ccccc1O[C@@H]1CCCN(c2cncc(Nc3nc4cc(/C=C/C(=O)O)ccc4o3)n2)C1 [Example 15, (R,E)-3-(2-((6-(3-(2-ethoxyphenoxy)piperidin-1-yl)pyrazin-2-yl)amino)benzo[d]oxazol-5-yl)acrylic Acid] | 7.3
CCOc1ccccc1O[C@@H]1CCCN(c2cncc(Nc3nc4cc(CCC(=O)O)ccc4o3)n2)C1 [Example 16, (R)-3-(2-((6-(3-(2-ethoxyphenoxy)piperidin-1-yl)pyrazin-2-yl)amino)benzo[d]oxazol-5-yl)propanoic Acid] | > 10
CCOc1ccccc1O[C@@H]1CCCN(c2cncc(Nc3nc4ccc(C(C)(C)C(=O)O)cc4o3)n2)C1 [Example 17, (R)-2-(2-((6-(3-(2-ethoxyphenoxy)piperidin-1-yl)pyrazin-2-yl)amino)benzo[d]oxazol-6-yl)-2-methylpropanoic Acid] | 1.3
CCOc1ccccc1O[C@@H]1CCCN(c2cncc(Nc3nc4ccc(CCC(=O)O)cc4o3)n2)C1 [Example 18, (R)-3-(2-((6-(3-(2-ethoxyphenoxy)piperidin-1-yl)pyrazin-2-yl)amino)benzo[d]oxazol-6-yl)propanoic Acid] | 1.1
CCOc1ccccc1O[C@@H]1CCCN(c2cncc(Nc3cc[nH]n3)n2)C1 [Example 19, (R)-6-(3-(2-ethoxyphenoxy)piperidin-1-yl)-N-(1H-pyrazol-3-yl)pyrazin-2-amine] | 1.7
CCOc1ccccc1O[C@@H]1CCCN(c2cncc(Nc3ccn(CC(=O)O)n3)n2)C1 [Example 20, (R)-2-(3-((6-(3-(2-ethoxyphenoxy)piperidin-1-yl)pyrazin-2-yl)amino)-1H-pyrazol-1-yl)acetic Acid] | > 10
CCOc1ccccc1O[C@@H]1CCCN(c2cncc(Nc3ccn(CC(C)(C)C(=O)O)n3)n2)C1 [Example 21, (R)-3-(3-((6-(3-(2-ethoxyphenoxy)piperidin-1-yl)pyrazin-2-yl)amino)-1H-pyrazol-1-yl)-2,2-dimethylpropanoic Acid] | > 10
CCOc1ccccc1O[C@@H]1CCCN(c2cncc(Nc3nnnn3C)n2)C1 [Example 23, (R)-6-(3-(2-ethoxyphenoxy)piperidin-1-yl)-N-(1-methyl-1H-tetrazol-5-yl)pyrazin-2-amine] | 0.27
CCOc1ccccc1O[C@@H]1CCCN(c2cncc(Nc3ccccc3)n2)C1 [Example 24, (R)—N-6-(3-(2-ethoxyphenoxy)piperidin-1-yl)-N-phenylpyrazin-2-amine] | 5.5
CCOc1ccccc1O[C@@H]1CCCN(c2cncc(Nc3ccc(CC(=O)NCc4ccncc4)cc3)n2)C1 [Example 26, (R)-2-(4-((6-(3-(2-ethoxyphenoxy)piperidin-1-yl)pyrazin-2-yl)amino)phenyl)-N-(pyridin-4-ylmethyl)acetamide] | 6.7
CCOc1ccccc1O[C@@H]1CCCN(c2cncc(Nc3ccc(C(C)(C)C(=O)O)cc3)n2)C1 [Example 27, (R)-2-(4-((6-(3-(2-ethoxyphenoxy)piperidin-1-yl)pyrazin-2-yl)amino)phenyl)-2-methylpropanoic Acid] | > 10
CCOc1ccccc1O[C@@H]1CCCN(c2cncc(Nc3cccc(C(C)(C)C(=O)O)c3)n2)C1 [Example 29, (R)-2-(3-((6-(3-(2-ethoxyphenoxy)piperidin-1-yl)pyrazin-2-yl)amino)phenyl)-2-methylpropanoic Acid] | 6.4
CCOc1ccccc1O[C@@H]1CCCN(c2cncc(Nc3cccc(-c4ccc(CC(C)(C)C(=O)O)cc4)c3)n2)C1 [Example 30, (R)-3-(3′-((6-(3-(2-ethoxyphenoxy)piperidin-1-yl)pyrazin-2-yl)amino)-[1,1′-biphenyl]-4-yl)-2,2-dimethylpropanoic Acid] | 2.4

Source: US12630528B2, “Amino aryl derivative useful as diacylglycerol acyltransferase 2 inhibitor and use thereof” (LG CHEM, LTD., priority 2019, dated 2026)
